Each structure is given as a SMILES string.

In turn, `FC(Cc1c[nH]c2ccc(-n3cnnc3)cc12)CN1CCC(Cc2ccccc2)CC1` (stereo not drawn) came in with a pKa of 8.7.

`NCCC(F)(F)F` registered a pKa of 8.7.

On to `FC1(Cc2ccccc2)CCN(CCCc2c[nH]c3ccc(-n4cnnc4)cc23)CC1`, for which the pKa came to 8.8.

For `FC1(F)CCNCC1`, the pKa amounted to 8.5.

`CCCCN(C)C` registered a pKa of 10.2.

For `FC1CCNCC1`, the pKa is 9.4.

With `CCN(C)C`, the pKa stood at 10.2.

The molecule `CN(C)CC(F)(F)F` gave a pKa of 4.8.

`CC(=O)N1CCNCC1` came in with a pKa of 7.9.

In turn, `FC1(F)CCCNC1` registered a pKa of 7.4.

Regarding `CN(C)CCCC(C)(C)c1ccc(C(C)(C)C)cc1`, the pKa turned out to be 9.8.

`NCCCC(F)(F)F`: the pKa amounted to 9.7.

`CN(C)C(C)(C)CCCc1ccc(C(C)(C)C)cc1` yielded a pKa of 10.4.

As for `c1ccc(CC2CCN(CCCc3c[nH]c4ccc(-n5cnnc5)cc34)CC2)cc1`, the pKa turned out to be 9.7.

The molecule `NCC(F)F` came in with a pKa of 7.3.

In turn, `CN(C)CC(C)(C)CCc1ccc(C(C)(C)C)cc1` gave a pKa of 9.4.

As to `NCCCF`, the pKa stood at 9.9.

The molecule `CN(C)C` registered a pKa of 9.8.

The molecule `CN(C)CCCCc1ccc(C(C)(C)C)cc1` gave a pKa of 9.9.

`CN1CCCCC1` had a pKa of 10.1.

`CCCCN` gave a pKa of 10.7.

Take `FC(F)(Cc1c[nH]c2ccc(-n3cnnc3)cc12)CN1CCC(Cc2ccccc2)CC1`: the pKa was 6.7.

For the molecule `FC1CCCNC1` (stereo not drawn), the pKa came out at 9.3.

One may read the pKa as the pH at which an ionisable group is half protonated. Read a low pKa as a stronger acid or weaker base.

Values taken from the pKa sets of Baltruschat and Czodrowski (2020).
